# From patent publication US20120045393A1 (priority 2009, published 2012)
# Read-outs that look alike come from different tables or passages of the source. Non-standard residues stand in square brackets, D forms with d. Residues, ends and D or L forms follow the SMILES beside them. *: point of attachment. X1 = NC(=O)NNC(=O)[C@@H]1CCCN1C[C@H](Cc1ccc(C(=O)c2ccccc2)cc1)N*; DOTA = O=C(O)CN1CCN(CC(=O)O)CCN(CC(=O)*)CCN(CC(=O)O)CC1; Bpa = N[C@@H](Cc1ccc(C(=O)c2ccccc2)cc1)C(=O)O; d1Nal = N[C@H](Cc1cccc2ccccc12)C(=O)O; d2Nal = N[C@H](Cc1ccc2ccccc2c1)C(=O)O; DO3A10CM = not defined here; Bpa4 = non-natural residue; Hpgly = not defined here; azaGly = NNC(=O)O
# B1: BRU-2894 (peptide)
# peptide: XHWSHXWXPX
# modifications: DO3A10CM on N-terminus; AA1 Dphe; AA6 Darg; AA8 Bpa4; AA10 azaGly-NH2
# B2: BRU-2696 (peptide)
# peptide: XXHWSHXWXPX
# modifications: N-terminal DO3A10CM; Gly-Abz4 linker before 1; Sar at 1; Darg at 6; Bpa4 at 8; azaGly-NH2 at 10
# B3: BRU-2766 (peptide)
# peptide: DO3A10CM-G[d1Nal]HWSH[dR]W[Bpa]P[azaGly]-NH2
# modifications: reading uncertain
# B4: BRU-2757 (peptide)
# peptide: XHWSHXWXPX
# modifications: DO3A10CM on N-terminus; AA1 Damfe4; AA6 Darg; AA8 Bpa4; AA10 azaGly-NH2
# B5: BRU-2797 (peptide)
# peptide: DO3A10CM-G[Hpgly]HWSH[dR]W[Bpa]P[azaGly]-NH2
# modifications: reading uncertain
# Legend:
# [1] = In vitro metabolic stability in mouse liver homogenate at 37° C.; assay type: in vitro ADME; conditions: for remaining at 1 h, 0.3 mg/mL: female, Tac:NCr:Foxn1nu/nu, mouse, tissue homogenate, pH 7.2
# Experimental: Livers from 10 female Tac:NCr:Foxn1^nu/nu mice were excised, rinsed with ice cold PBS (no Ca^++ or Mg^++) and weighed. The tissues were minced with scissors in Petri dishes on ice with Tris buffered saline (Pierce BupH™ Tris buffered saline packs, #28376; 25 mM Tris, 150 mM NaCl, pH 7.2). After mincing, the tissues were dounce homogenized, and the total volume adjusted with ice cold Tris buffer (4 mL for every gram of excised tissue). The homogenate was centrifuged at ˜4000×g for 10 min at 4° C. The supernatants were aliquoted into Eppendorf tubes on ice (200 and 100 μl volumes) and stored at −80° C. Kidney homogenates were similarly prepared. […] The mixture was centrifuged at 4° C. for 20 min at 20,000×g to precipitate the protein; 10 μL (˜7.6 μCi) of the supernatant was injected into the HPLC for the analysis. […] Peaks at these retention times were also observed in the in vivo plasma sample (FIG. 1). […] After 0 and 60 min, the sample was removed from the incubator, immediately cooled on ice and 2 μL of 10 mM EDTA and 0.2 mL of ice-cooled MeOH were added, mixing after each addition. The proteins in the sample were separated by centrifugation at 14,000 rpm for 20 min. The supernatant was harvested and, in the samples spiked with the ^177Lu-analog, the radioactivity was measured using a Capintec dose calibrator to determine recovery. The sample was then analyzed by HPLC. […] After 0 and 60 min, the sample was removed from the incubator, immediately cooled on ice and 2 μL of 10 mM EDTA and 0.24 mL of ice-cooled methanol was added, mixing after each addition. The proteins in the sample were separated by centrifugation at 14,000 rpm for 20 min. The supernatant was collected and analyzed by LC/MS as described earlier herein.
# [2] = system: LHRH binding sites on human ovarian cancer cells (EFO-27);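 note: Cell-associated radioactivity on confluent EFO-27 monolayers in 96-well plates, measured by microplate scintillation counting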
# [3] = molecular target: LHRH binding sites on EFO-27 human ovarian cancer cells (human); assay: competition with [125I-Tyr8]BRU-2477 on EFO-27 cells
# [4] = molecular target: LHRH receptor (LHRH binding sites) on EFO-27 human ovarian cancer cells (human); assay: competition with [125I-Tyr8]BRU-2477 for binding to EFO-27 cells
# [5] = molecular target: LHRH receptor (LHRH binding sites) on EFO-27 human ovarian cancer cells (human); assay: competition with [125I-Tyr8]BRU-2477, EFO-27 cells
# [6] = molecular target: LHRH receptor (LHRH binding sites) on EFO-27 human ovarian cancer cells (human); assay: competition with [125I-Tyr8]BRU-2477 for binding to EFO-27 cells; remark: listed apart in the source
# [7] = Table 19: analogs used in the stabilization studies
molecule,measurement,setting,value
N=C(N)NCCC[C@@H](NC(=O)[C@H](Cc1c[nH]cn1)NC(=O)[C@H](CO)NC(=O)[C@H](Cc1c[nH]c2ccccc12)NC(=O)[C@H](Cc1c[nH]cn1)NC(=O)[C@@H]1CCC(=O)N1)C(=O)N[C@@H](Cc1c[nH]c2ccccc12)C(=O)N[C@@H](Cc1ccc(O)cc1)C(=O)N1CSC[C@H]1C(=O)NNC(N)=O [BRU-3124] (HELM PEPTIDE1{[Glp].H.W.S.H.[dR].W.Y.[O=C([C@@H]1CSCN1[*:1])[*:2]].[O=C(NN[*:1])[*:2]].[am]}$$$$V2.0),"remaining at 1 h, 0.3 mg/mL",[1],38.7 ± 5.9%
N=C(N)NCCC[C@H](NC(=O)[C@@H](Cc1ccc2ccccc2c1)NC(=O)CN1CCN(CC(=O)O)CCN(CC(=O)O)CCN(CC(=O)O)CC1)C(=O)N[C@@H](Cc1c[nH]c2ccccc12)C(=O)N[C@@H](CO)C(=O)N[C@@H](Cc1c[nH]cn1)C(=O)N[C@H](CCCNC(=N)N)C(=O)N[C@@H](Cc1c[nH]c2ccccc12)C(=O)N[C@@H](Cc1ccc(C(=O)c2ccccc2)cc1)C(=O)N1CSC[C@H]1C(N)=O [Lu-BRU-3072],"remaining at 1 h, 0.3 mg/mL","[1]; liver homogenate at 37° C. for 60 min, mean ± SD, n = 3, read-out: % remaining (% of parent remaining)",98.5 ± 0.2%
same,Stabilized relative to parent?,"[1]; liver homogenate at 37° C. for 60 min, compared to Lu-BRU-2813 or unstabilized peptide",Yes
N=C(N)NCCC[C@H](NC(=O)[C@@H](Cc1ccc2ccccc2c1)NC(=O)CN1CCN(CC(=O)O)CCN(CC(=O)O)CCN(CC(=O)O)CC1)C(=O)N[C@@H](Cc1c[nH]c2ccccc12)C(=O)N[C@@H](CO)C(=O)N[C@@H](Cc1c[nH]cn1)C(=O)N[C@H](CCCNC(=N)N)C(=O)N[C@@H](Cc1c[nH]c2ccccc12)C(=O)N[C@@H](Cc1ccc(C(=O)c2ccccc2)cc1)C(=O)N1CSC[C@H]1C(N)=O [BRU-3072],metabolism in liver homogenate,"[1]; 37° C. for 60 min, Lu complexes of DO3A10CM peptides, unlabeled BRU-2477 derivatives",no metabolism was observed
same,times more potent than the comparator analog,"[2]; BRU-2441 vs BRU-2439, BRU-2666 vs Sar1 analog, BRU-3072 vs Pro9 analog",~2.5
N=C(N)NCCC[C@H](NC(=O)[C@@H](Cc1ccc2ccccc2c1)NC(=O)CN1CCN(CC(=O)O)CCN(CC(=O)O)CCN(CC(=O)O)CC1)C(=O)N[C@@H](Cc1c[nH]c2ccccc12)C(=O)N[C@@H](CO)C(=O)N[C@@H](Cc1c[nH]cn1)C(=O)N[C@H](CCCNC(=N)N)C(=O)N[C@@H](Cc1c[nH]c2ccccc12)C(=O)N[C@@H](Cc1ccc(C(=O)c2ccccc2)cc1)C(=O)N1CC[C@H]1C(=O)NNC(N)=O [Lu-BRU-2993],"remaining at 1 h, 0.3 mg/mL",[1],14.9 ± 13.2%
N=C(N)NCCC[C@H](NC(=O)[C@@H](Cc1ccc2ccccc2c1)NC(=O)CN1CCN(CC(=O)O)CCN(CC(=O)O)CCN(CC(=O)O)CC1)C(=O)N[C@@H](Cc1c[nH]c2ccccc12)C(=O)N[C@@H](CO)C(=O)N[C@@H](Cc1c[nH]cn1)C(=O)N[C@H](CCCNC(=N)N)C(=O)N[C@@H](Cc1c[nH]c2ccccc12)C(=O)N[C@@H](Cc1ccc(C(=O)c2ccccc2)cc1)CN1CCC[C@H]1C(=O)NNC(N)=O [Lu-BRU-3081] ({DOTA}-[d2Nal]RWSH[dR]W-X1),"remaining at 1 h, 0.3 mg/mL",[1],100%
N=C(N)NCCC[C@H](NC(=O)[C@@H](Cc1ccc2ccccc2c1)NC(=O)CN1CCN(CC(=O)O)CCN(CC(=O)O)CCN(CC(=O)O)CC1)C(=O)N[C@@H](Cc1c[nH]c2ccccc12)C(=O)N[C@@H](CO)C(=O)N[C@@H](Cc1c[nH]cn1)C(=O)N[C@H](CCCNC(=N)N)C(=O)N[C@@H](Cc1c[nH]c2ccccc12)C(=O)N[C@@H](Cc1ccc(C(=O)c2ccccc2)cc1)C(=O)N1C[C@H](F)C[C@H]1C(=O)NNC(N)=O [Lu-BRU-2994],"remaining at 1 h, 0.3 mg/mL",[1],45.7 ± 1.2%
same,EC50,"[2]; Table 22, unit inferred",600 nM
N=C(N)NCCC[C@H](NC(=O)[C@@H](Cc1ccc2ccccc2c1)NC(=O)CN1CCN(CC(=O)O)CCN(CC(=O)O)CCN(CC(=O)O)CC1)C(=O)N[C@@H](Cc1c[nH]c2ccccc12)C(=O)N[C@@H](CO)C(=O)N[C@@H](Cc1c[nH]cn1)C(=O)N[C@H](CCCNC(=N)N)C(=O)N[C@@H](Cc1c[nH]c2ccccc12)C(=O)N[C@@H](Cc1ccc(C(=O)c2ccccc2)cc1)C(=O)N1C[C@H](N)C[C@H]1C(=O)NNC(N)=O [BRU-2995],metabolism in liver homogenate,[1],no metabolism was observed
same,EC50,[2]; [7],410 nM
"N=C(N)NCCC[C@@H](NC(=O)[C@H](Cc1c[nH]cn1)NC(=O)[C@H](CO)NC(=O)[C@H](Cc1c[nH]c2ccccc12)NC(=O)[C@H](Cc1c[nH]cn1)NC(=O)[C@@H]1CCC(=O)N1)C(=O)N[C@@H](Cc1c[nH]c2ccccc12)C(=O)N[C@@H](Cc1ccc(O)cc1)C(=O)N1CCC[C@H]1C(=O)NNC(N)=O [BRU-2477, pGlu-His-Trp-Ser-His-Darg-Trp-Tyr-Pro-azaGly-NH2, reference compound] (HELM PEPTIDE1{[Glp].H.W.S.H.[dR].W.Y.P.[O=C(NN[*:1])[*:2]].[am]}$$$$V2.0)","remaining at 1 h, 0.3 mg/mL",[1],11.9 ± 2.4%
same,EC50,"[2]; EFO-27 cells, competition with [125I-Tyr8]BRU-2477, 90 min",740 nM
same,EC50,[2]; [7],840 nM
N=C(N)NCCC[C@H](NC(=O)[C@@H](Cc1ccc2ccccc2c1)NC(=O)CN1CCN(CC(=O)O)CCN(CC(=O)O)CCN(CC(=O)O)CC1)C(=O)N[C@@H](Cc1c[nH]c2ccccc12)C(=O)N[C@@H](CO)C(=O)N[C@@H](Cc1c[nH]cn1)C(=O)N[C@H](CCCNC(=N)N)C(=O)N[C@@H](Cc1c[nH]c2ccccc12)C(=O)N[C@@H](Cc1ccc(C(=O)c2ccccc2)cc1)C(=O)N1CCCC[C@H]1C(=O)NNC(N)=O [Lu-BRU-2996],"remaining at 1 h, 0.3 mg/mL",[1],71.7 ± 2.9%
N=C(N)NCCC[C@H](NC(=O)[C@@H](Cc1ccc2ccccc2c1)NC(=O)CN1CCN(CC(=O)O)CCN(CC(=O)O)CCN(CC(=O)O)CC1)C(=O)N[C@@H](Cc1c[nH]c2ccccc12)C(=O)N[C@@H](CO)C(=O)N[C@@H](Cc1c[nH]cn1)C(=O)N[C@H](CCCNC(=N)N)C(=O)N[C@@H](Cc1c[nH]c2ccccc12)C(=O)N[C@@H](Cc1ccc(C(=O)c2ccccc2)cc1)CN1CCC[C@H]1C(=O)NNC(N)=O [BRU-3081] ({DOTA}-[d2Nal]RWSH[dR]W-X1),metabolism in liver homogenate,[1],no metabolism was observed
same,EC50,[2]; [7],300 nM
N=C(N)NCCC[C@@H](NC(=O)[C@H](Cc1c[nH]cn1)NC(=O)[C@H](CO)NC(=O)[C@H](Cc1c[nH]c2ccccc12)NC(=O)[C@H](Cc1c[nH]cn1)NC(=O)[C@@H]1CCC(=O)N1)C(=O)N[C@@H](Cc1c[nH]c2ccccc12)C(=O)N[C@@H](Cc1ccc(O)cc1)CN1CCC[C@H]1C(=O)NNC(N)=O [BRU-3122],"remaining at 1 h, 0.3 mg/mL",[1],100%
same,EC50,[2]; [7],3130 nM
N=C(N)NCCC[C@@H](NC(=O)[C@H](Cc1c[nH]cn1)NC(=O)[C@H](CO)NC(=O)[C@H](Cc1c[nH]c2ccccc12)NC(=O)[C@H](Cc1c[nH]cn1)NC(=O)[C@@H]1CCC(=O)N1)C(=O)N[C@@H](Cc1c[nH]c2ccccc12)C(=O)N[C@@H](Cc1ccc(O)cc1)C(=O)N1C[C@@H](N)C[C@H]1C(=O)NNC(N)=O [BRU-3123] (HELM PEPTIDE1{[Glp].H.W.S.H.[dR].W.Y.[N[C@H]1C[C@@H](C(=O)[*:2])N([*:1])C1].[O=C(NN[*:1])[*:2]].[am]}$$$$V2.0),"remaining at 1 h, 0.3 mg/mL",[1],100%
same,EC50,[2]; [7],990 nM
N=C(N)NCCC[C@H](NC(=O)[C@@H](Cc1ccc2ccccc2c1)NC(=O)CN1CCN(CC(=O)O)CCN(CC(=O)O)CCN(CC(=O)O)CC1)C(=O)N[C@@H](Cc1c[nH]c2ccccc12)C(=O)N[C@@H](CO)C(=O)N[C@@H](Cc1c[nH]cn1)C(=O)N[C@H](CCCNC(=N)N)C(=O)N[C@@H](Cc1c[nH]c2ccccc12)C(=O)N[C@@H](Cc1ccc(C(=O)c2ccccc2)cc1)C(=O)N1C[C@H](N)C[C@H]1C(=O)NNC(N)=O [Lu-BRU-2995],"remaining at 1 h, 0.3 mg/mL",[1],98.7 ± 0.1%
B1,EC50,[3],2000 nM
same,EC50,[4],2000 nM
B2,EC50,[5],440 nM
same,EC50,[4],440 nM
same,EC50,[6],650 nM
B3,EC50,[3],620 nM
same,EC50,[4],620 nM
same,EC50,[6],650 nM
B4,EC50,[3],260 nM
same,EC50,[5],260 nM
same,EC50,[4],260 nM
B5,EC50,[3],450 nM
same,EC50,[5],450 nM
same,EC50,[4],450 nM
